From patent US8318781B2, “G-protein-conjugated receptor agonist” (Japan Science and Technology Agency, priority 2007, dated 2012)
pEC50: −log10 of the molar value. Entries after “also recorded” stand apart in the source; their conditions may differ. Read-outs that look alike come from different tables or passages of the source.

How the values were obtained:
Assay type in all cases: cell-based
[1] = target: T1, human GPR120 (hGPR120) (Homo sapiens, UniProt Q5NUL3); assay: Determination of intracellular Ca2+ concentration (FLIPR), cell line TXGPR120; conditions: for agonistic activity for hGPR120 (in words): cells in which GPR120 has been transgenically expressed; for [Ca^2+]/GPR120 10 μM (ratio vs. LA): relative fluorescence intensity vs LA at 10 μM, TXGPR120 cells
T1 construct: expressed in transfected cells; doxycycline-inducible expression vector
T1 sequence (Q5NUL3 1-361): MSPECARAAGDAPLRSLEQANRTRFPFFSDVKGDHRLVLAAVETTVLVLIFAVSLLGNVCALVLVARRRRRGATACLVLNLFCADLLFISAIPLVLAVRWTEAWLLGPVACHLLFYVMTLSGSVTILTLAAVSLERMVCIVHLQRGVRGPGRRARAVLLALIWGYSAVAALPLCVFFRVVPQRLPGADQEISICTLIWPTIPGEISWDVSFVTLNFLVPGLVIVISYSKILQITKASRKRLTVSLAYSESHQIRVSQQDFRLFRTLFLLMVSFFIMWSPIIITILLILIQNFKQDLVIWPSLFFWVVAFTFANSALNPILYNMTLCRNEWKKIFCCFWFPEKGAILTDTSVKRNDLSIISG
Method: (§1) (1) In this test, The cell lines TXGPR40, TXGPR120 and GPR120/Flp-in were plated onto a collagen-coated black 96-well plate in 2×10^5 cells/well. The 96-well plates containing the cells were centrifuged and treated with Doxycycline (final concentration 10 μg/mL), incubated in a CO2 incubator for 21 hours, then used for assay.
(§2) (2) The ligand used in this test includes NCP04, NCP14, NCG20, NCG21, NCG22, NCG23, NCP02, NCP03, NCP05, NCP06, NCG14, NCG17, NCG19, NCG28, NCG29, NCG30, NCG31, NCG34, NCG35, NCG37, NCG38, NCG44, NCG45, NCG46, and NCG54. Each ligand was dissolved in DMSO and adjusted to the concentration of 10 mM, then diluted with Hanks' Balanced Salt Solution (pH 7.4) containing 20 mM HEPES (referred to as FLIPR buffer hereinafter) to the final concentration of 1 to 100 μM. 1% DMSO was used as the negative control, and LA was used as the positive control.
(§3) The ligands and controls were placed in different 96-well plates from the plates for the cells.
(§4) (3) The 96-well plate containing the cells was removed from the CO2 incubator. A fluorescent dye prepared in a twofold higher concentration (Ca Assay Kit Component A diluted with FLIPR Buffer) was added in 50 μL/well, then allowed to stand in the dark at room temperature for one hour.
(§5) (4) After one hour, the 96-well plate containing the cells and the 96-well plate in which ligands and controls were prepared were set on FLIPR (Fluorometric Imaging Plate Reader) for determination.
(§6) (5) Fluorometry using FLIPR was carried out at a laser output of 1.0 W for five minutes. […] after the start of the determination, the ligand (25 μL) was added dropwise to the cell plate at a rate of 50 μL/sec. The intensity of fluorescence was automatically digitized by the application program installed in the FLIPR from the image taken by the CCD camera (with exposure time of 0.40 sec). The interval of data sampling was one second for the initial one minute after the start of operation, and six seconds for the subsequent four minutes.
(§7) (6) The maximum fluorescence intensity was obtained from the data showing the change in the fluorescence intensity over time observed in each well. The maximum fluorescence intensity was plotted against ligand concentration, and pEC50 was calculated. The ratio of the fluorescence intensity for each ligand to LA at 10 μM was calculated as the relative intensity of each ligand.

[2] = target: T1, human GPR120 (hGPR120); assay: Determination of intracellular Ca2+ concentration (FLIPR), cell line GPR120/Flp-in; conditions: for EC50 / [Ca^2+]/GPR120/Flp-In 10 μM (ratio vs. LA): GPR120/Flp-in cells; for EC50: maximum fluorescence intensity vs ligand concentration, read-out: [Ca^2+]/GPR120/Flp-In pEC50 (converted); for [Ca^2+]/GPR120/Flp-In 10 μM (ratio vs. LA): relative fluorescence intensity vs LA at 10 μM
Method: as §1, §2, §3, §4, §5, §6, §7

[3] = target: T1, human GPR120 (hGPR120); assay: ERK assay, screening for GPR120 ligands in cell line TXGPR120;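 as to ERK/GPR120 10 μM: signals normalized between DMSO and PMA controls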; conditions: TXGPR120 cells; for ERK activation for GPR120 (in words): FIGS. 5-8; for ERK/GPR120 10 μM: ligand 10 μM; for ERK/GPR120 10 μM / ERK/GPR120 100 μM: class relative to LA; for ERK/GPR120 100 μM: ligand 100 μM
Method: (§8) This Test 1 was carried out by using the following materials and methods.
(§9) (1) In this test, the cell lines TXGPR40 and TXGPR120 were plated in 35-mm dishes in 5×10^5 cells/per dish.
(§10) Each ligand was dissolved in DMSO, diluted tenfold with the medium to make the total amount of 100 μl. DMSO was used as the negative control, and PMA (phorbol-12-myristate-13-acetate) was used as the positive control.
(§11) (3) The medium was removed from the dish of the cell to reduce the total amount of liquid to 0.9 ml.
(§12) (4) The ligand solution was added dropwise to the cell solution, and dispersed by gently shaking the dish, and allowed to react at room temperature.
(§13) (5) After 5 minutes of reaction, the medium was discarded, and the remaining medium on the dish was removed on ice using an aspirator.
(§14) (6) 150 μl of Lysis buffer (50 mM HEPES (pH 7.0), 150 mM NaCl, 10% glycerol, 1% NonidetP-40, 2 mM MgCl2, 1 mM EDTA, 100 mM NaF, 10 mM sodium phosphate, 1 mM Na3VO4, 20 mM β-glycerophosphate, and Proteinase inhibitor) were added, then the cells were collected using a cell scraper.
(§15) (1) The crude enzyme solution mixed with SDS Sample Buffer was subjected to ultrasonication with a sonifier, then incubated at 90° C. for five minutes.
(§16) (2) The mixture was vortexed and centrifuged at 15,000 rpm for five minutes at 4° C.
(§17) (3) The supernatant of the centrifuged sample was applied to two 7.5% acrylamide gel slabs placed in an electrophoresis tank filled with 1×SDS-PAGE Running Buffer (25 mM Tris, 0.2 M Glycin, and 1% SDS). Electrophoresis was carried out under a constant current of 40 mA for about 80 to 90 minutes.
(§18) (1) A PVDF membrane cut in the same size as the gel slab was immersed in methanol for about 15 seconds and then shaken in Transfer Buffer C solution (25 mM Tris, 0.02% SDS, 2% methanol and 40 mM 6-aminohexanoic acid) at room temperature to swell for 15 minutes. Filter paper for blotting was cut into a 10-cm square.
(§19) (2) On the blotting apparatus were placed sequentially two pieces of filter paper immersed in A solution (0.3 M Tris, 0.02% SDS and 2% methanol), two pieces of filter paper immersed in B solution (25 mM Tris, 0.02% SDS and 2% methanol), and the membrane thereon. The gel slab after electrophoresis, and finally two pieces of filter paper immersed in C solution was placed thereon, and the apparatus was closed.
(§20) (3) The protein was transferred to the membrane at 15 V for 30 minutes.
(§21) (1) The following procedure was all carried out at room temperature. After the protein transfer, the membrane was placed into a vial containing 1×TTBS (0.2 M Tris, 1.5 M NaCl, 0.2% Tween 20) and washed for 15 minutes.
(§22) (2) TTBS was discarded, and about 10 ml of Block Ace was added and blocked on a shaker for one hour.
(§23) (1) The primary antibodies (p44/42 MAP Kinase Antibody and Phospho-p44/42 MAP Kinase Antibody) were each diluted 1000-fold with TTBS.
(§24) (2) After blocking, the Block Ace solution was removed, the solution of the primary antibody was added and allowed to react on the shaker for two hours.
(§25) (1) The secondary antibody (Anti-rabbit Ig, Horseradish Peroxidase linked F(ab′)2 fragments) was diluted 5000-fold with TTBS.
(§26) (2) The primary antibody solution was removed and the membrane was washed three times on the shaker in TTBS for five to ten minutes each.
(§27) (3) TTBS was removed and the solution of secondary antibody was added and left for 1 hour on the shaker.
(§28) (1) 2 ml each of Detection Reagent 1 and Detection Reagent 2 from ECL kit were mixed together on ice.
(§29) (2) The solution of secondary antibody was removed from the membrane reacted with the secondary antibody and then washed three times on the shaker in TTBS for five minutes each.
(§30) (3) The liquid was thoroughly removed from the membrane, which was then placed in a plastic bag, and 2 ml of the Detection Reagent mixture was added per each membrane.
(§31) (4) The membrane was kept in contact with a film in the cassette for one to five minutes, and the film was developed using an automatic developing machine.

[4] = target: T2, human GPR40 (hGPR40) (Homo sapiens, UniProt O14842); assay: Determination of intracellular Ca2+ concentration (FLIPR), cell line TXGPR40; conditions: for EC50 / [Ca^2+]/GPR40 10 μM (ratio vs. LA): TXGPR40 cells; for EC50: maximum fluorescence intensity vs ligand concentration, read-out: [Ca^2+]/GPR40 pEC50 (converted); for agonistic activity for GPR40 (in words): cells in which GPR40 has been transgenically expressed; for [Ca^2+]/GPR40 10 μM (ratio vs. LA): relative fluorescence intensity vs LA at 10 μM
T2 construct: expressed in transfected cells; doxycycline-inducible expression vector
T2 sequence (O14842 whole entry): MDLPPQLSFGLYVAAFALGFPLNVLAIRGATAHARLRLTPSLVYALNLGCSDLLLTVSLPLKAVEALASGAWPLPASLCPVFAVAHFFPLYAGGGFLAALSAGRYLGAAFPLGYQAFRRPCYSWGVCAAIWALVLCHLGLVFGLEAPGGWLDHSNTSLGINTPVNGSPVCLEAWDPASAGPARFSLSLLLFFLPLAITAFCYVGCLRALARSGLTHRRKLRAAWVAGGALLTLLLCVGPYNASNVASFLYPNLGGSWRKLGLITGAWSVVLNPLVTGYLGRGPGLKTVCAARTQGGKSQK
Method: as §1, §2, §3, §4, §5, §6, §7

[5] = target: T2, human GPR40 (hGPR40); assay: ERK assay, screening for GPR40 ligands in cell line TXGPR40; conditions: TXGPR40 cells; for ERK activation for GPR40 (in words): FIGS. 1-4; for ERK/GPR40 10 μM: ligand 10 μM; for ERK/GPR40 10 μM / ERK/GPR40 100 μM: class relative to LA; for ERK/GPR40 100 μM: ligand 100 μM
Method: as §8, §9, §10, §11, §12, §13, §14, §15, §16, §17, §18, §19, §20, §21, §22, §23, §24, §25, §26, §27, §28, §29, §30, §31

| agonistic activity for hGPR120 (in words) [1] | [Ca^2+]/GPR120 10 μM (ratio vs. LA) [1] | EC50 [2] | [Ca^2+]/GPR120/Flp-In 10 μM (ratio vs. LA) [2] | ERK activation for GPR120 (in words) [3] | ERK/GPR120 10 μM [3] | ERK/GPR120 100 μM [3] | EC50 [4] | agonistic activity for GPR40 (in words) [4] | [Ca^2+]/GPR40 10 μM (ratio vs. LA) [4] | ERK/GPR40 10 μM [5] | ERK/GPR40 100 μM [5] | pEC50 [1] | pEC50 [2] | pEC50 [4] | SMILES | ERK activation for GPR40 (in words) [5] |
| --- | --- | --- | --- | --- | --- | --- | --- | --- | --- | --- | --- | --- | --- | --- | --- | --- |
| exhibit a similar effect | 0.00 | 11.5 µM | 0.45 |  | + (+ denotes 0 to 100% of LA) | +++ (+++ denotes a higher value than LA) | 5.62 µM | showed a specific reactivity | 1.22 | +++ (+++ denotes a higher value than LA) | +++ (+++ denotes a higher value than LA) |  |  |  | CCCCCN(CCOc1ccc(CCC(=O)O)cc1)c1ccccn1 [NCP05] |  |
| exhibit a similar effect | 0.00 | 15.5 µM | 0.45 |  | + (+ denotes 0 to 100% of LA) | + (+ denotes 0 to 100% of LA) | 3.39 µM | showed a specific reactivity | 1.47 | + (+ denotes 0 to 100% of LA) | +++ (+++ denotes a higher value than LA) |  |  |  | CCN(CCOc1ccc(CCC(=O)O)cc1)c1ccccn1 [NCP02] |  |
| exhibit a similar effect | 0.00 | 15.5 µM | 0.56 |  |  | ++ (++ denotes 50 to 100% of LA) | 9.77 µM | showed a specific reactivity | 0.98 | ++ (++ denotes 50 to 100% of LA) | ++ (++ denotes 50 to 100% of LA) |  |  |  | O=C(O)CCc1ccc(OCCN(c2ccccc2)c2ccccn2)cc1 [NCP14] |  |

Continued, compound first:

| SMILES | agonistic activity for hGPR120 (in words) [1] | [Ca^2+]/GPR120 10 μM (ratio vs. LA) [1] | EC50 [2] | [Ca^2+]/GPR120/Flp-In 10 μM (ratio vs. LA) [2] | ERK activation for GPR120 (in words) [3] | ERK/GPR120 10 μM [3] | ERK/GPR120 100 μM [3] | EC50 [4] | agonistic activity for GPR40 (in words) [4] | [Ca^2+]/GPR40 10 μM (ratio vs. LA) [4] | ERK/GPR40 10 μM [5] | ERK/GPR40 100 μM [5] | pEC50 [1] | pEC50 [2] | pEC50 [4] | ERK activation for GPR40 (in words) [5] |
| --- | --- | --- | --- | --- | --- | --- | --- | --- | --- | --- | --- | --- | --- | --- | --- | --- |
| O=C(O)CCc1ccc(OCCCN(c2ccccc2)c2ccccn2)cc1 [NCG28] | exhibit a similar effect | 0.02 | 6.76 µM | 0.54 | activates ERK | ++ (++ denotes 50 to 100% of LA) | +++ (+++ denotes a higher value than LA) | 1.12 µM | showed a specific reactivity | 1.37 | +++ (+++ denotes a higher value than LA) | +++ (+++ denotes a higher value than LA) |  |  |  | activates ERK at lower concentrations; also recorded: strongly activated ERK |
| Cc1cccc(N(CCOc2ccc(CCCC(=O)O)cc2)c2ccccc2)n1 [NCG38] | exhibit a similar effect | 0.56 |  | 0.81 | strongly activate ERK | +++ (+++ denotes a higher value than LA) | +++ (+++ denotes a higher value than LA) |  | showed a specific reactivity | 0.34 | ++ (++ denotes 50 to 100% of LA) | +++ (+++ denotes a higher value than LA) | 4.65 | 5.17 | 4.87 | strongly activated ERK |
| Cc1ccnc(N(CCOc2ccc(CCCC(=O)O)cc2)c2ccccc2)c1 [NCG34] | exhibit a similar effect | 0.49 |  | 0.81 | strongly activate ERK | +++ (+++ denotes a higher value than LA) | +++ (+++ denotes a higher value than LA) |  | showed a specific reactivity | 0.43 | + (+ denotes 0 to 100% of LA) | +++ (+++ denotes a higher value than LA) | 4.54 | 5.16 | 4.65 |  |
